# Measured values from US4950647A, “T cell immunopotentiator” (Nucleic Acid Research Institute, priority 1988, dated 1990).
# Experiments:
# [1] = test system: human lymphocytes (peripheral blood mononuclear cells); experiment: Mitogenic activity (3H-thymidine incorporation); format: cell-based
# Procedure: Peripheral blood mononuclear cells were isolated from heparinized peripheral blood of normal healthy donors as described in Sharma, B. and S. Gupta, "Antigen-specific primary cytotoxic T lymphocyte response in acquired immune deficiency syndrome (AIDS) and AIDS related complex", Clin. Exp. Immunol., 62:296, 1985. Briefly, blood was diluted 1:1 with Hanks balanced salt solution (HBSS). Peripheral blood mononuclear cells were separated on a Ficoll-Hypaque gradient. The peripheral blood mononuclear cells recovered from the interface were washed three times with HBSS and resuspended in RPMI-1640 containing 100 U/ml penicillin, 100 μg/ml streptomycin 2mM L-glutamine (GIBCO, Grand Island, N.Y.), and 10% heat-inactivated pooled A serum (Irvine Scientific, Irvine, Calif.), hereafter referred as complete medium (CM).
# The ability of 6-amino-(2-deoxy-α-D-erythro-pentofuranosyl)-imidazo[4,5,-C]pyridin- 4-one to activate lymphocytes was determined by culturing the cells with and without this compound. Peripheral blood mononuclear cells (1×10^5 /0.2 ml) were cultures in 96 well microtiter plates (Corning, N.Y.) for 72-96 hrs at 37° C. in 5% CO2 humid atmosphere and then for an additional 16 hr in the presence of 1 μCi/well [^3 H] thymidine (ICN Pharmaceuticals, Inc., Irvine, Calif.). Cells were harvested on glass fiber filter paper using a cell harvester (Skatron, Lier, Norway). The radioactivity was measured in a scintillation counter after suspending the dried filter in scintillation fluid.
# To determine whether 6-amino-(2-deoxy-α-D-erythro-pentofuranosyl)-imidazo[4,5,-C]pyridin- 4-one directly activates lymphocytes to proliferate, peripheral blood mononuclear cells were cultured with or without this compound as described in the above methods section.
# [2] = test system: T lymphocytes (peripheral blood mononuclear cells); experiment: Cyclosporin A induced suppression of lymphocyte response to Concanavalin A, and its restoration; format: cell-based, human; details: FIG. 4; Con A
# Procedure: Briefly, blood was diluted 1:1 with Hanks balanced salt solution (HBSS). Peripheral blood mononuclear cells were separated on a Ficoll-Hypaque gradient.
# Cultures were pulsed for 16 hr and [^3 H]-thymidine incorporation was measured.
# Peripheral blood mononuclear cells from normal donors were incubated with T cell mitogens in the presence and absence of this compound and then [^3 H-thymidine incorporation was measured.
# Lymphocytes proliferation was determined by ^3 H-thymidine incorporation.
# [3] = test system: S target cells (cultured lymphoblasts from SB cell line); experiment: Generation of antigen-specific primary cytotoxic T lymphocytes, 51Cr release, target S; format: cell-based, human; details: for % Specific Cytotoxicity: Exp. 2, C + Sx, no compound 26
# Procedure: Peripheral blood mononuclear cells from healthy donor A and C were cultured together with irradiated (3000 R) peripheral blood mononuclear cells from donor B and irradiated cells (SX) from B cells of the SB cell line, respectively, for five days. At the end of the incubation period, the cells were washed and resuspended in medium and then their cytotoxic activity was determined against the specific lymphoblast target cell B or S according to the procedure of Sharma and Gupta noted above.
# [4] = Revankar et al. 1984; cited from earlier work
smiles,measurement,setting,value
"Nc1cc2c(ncn2[C@@H]2C[C@H](O)[C@@H](CO)O2)c(O)n1 [Test Compound, 6-amino-1-(2-deoxy-α-D-erythro-pentofuranosyl)imidazo[4,5-C]-pyridin-4-one]",increase in the proliferation of peripheral blood mononuclear cells,"[1]; 0.006 mM to 0.4 mM, several donors",no significant increase
same,stimulation of lymphocytes to proliferate,[1]; 1 mM,failed to stimulate lymphocytes to proliferate
same,direct stimulation of lymphocytes to proliferate,[1]; by itself,unable to directly stimulate lymphocytes to proliferate
same,3H-thymidine incorporation,"[1]; donor 1, 0.006 mM",212 ± 96 Counts per minute
same,3H-thymidine incorporation,"[1]; donor 1, 0.025 mM",494 ± 267 Counts per minute
same,3H-thymidine incorporation,"[1]; donor 1, 0.050 mM",306 ± 106 Counts per minute
same,3H-thymidine incorporation,"[1]; donor 1, 0.2 mM",246 ± 99 Counts per minute
same,3H-thymidine incorporation,"[1]; donor 1, 0.4 mM",320 ± 46 Counts per minute
same,3H-thymidine incorporation,"[1]; donor 2, 0.006 mM",262 ± 68 Counts per minute
same,3H-thymidine incorporation,"[1]; donor 2, 0.025 mM",273 ± 122 Counts per minute
same,3H-thymidine incorporation,"[1]; donor 2, 0.050 mM",257 ± 67 Counts per minute
same,3H-thymidine incorporation,"[1]; donor 3, 0.006 mM",266 ± 42 Counts per minute
same,3H-thymidine incorporation,"[1]; donor 3, 0.025 mM",252 ± 112 Counts per minute
same,3H-thymidine incorporation,"[1]; donor 3, 0.050 mM",180 ± 37 Counts per minute
same,3H-thymidine incorporation,"[1]; donor 4, 0.006 mM",246 ± 61 Counts per minute
same,3H-thymidine incorporation,"[1]; donor 4, 0.025 mM",237 ± 55 Counts per minute
same,3H-thymidine incorporation,"[1]; donor 4, 0.050 mM",240 ± 35 Counts per minute
same,3H-thymidine incorporation,"[1]; donor 5, 0.006 mM",238 ± 63 Counts per minute
same,3H-thymidine incorporation,"[1]; donor 5, 0.025 mM",121 ± 55 Counts per minute
same,3H-thymidine incorporation,"[1]; donor 5, 0.050 mM",841 ± 310 Counts per minute
same,3H-thymidine incorporation,"[1]; donor 5, 0.2 mM",277 ± 51 Counts per minute
same,3H-thymidine incorporation,"[1]; donor 5, 0.4 mM",165 ± 64 Counts per minute
same,3H-thymidine incorporation,"[1]; donor 6, 0.006 mM",486 ± 51 Counts per minute
same,3H-thymidine incorporation,"[1]; donor 6, 0.025 mM",508 ± 140 Counts per minute
same,3H-thymidine incorporation,"[1]; donor 6, 0.050 mM",650 ± 130 Counts per minute
same,3H-thymidine incorporation,"[1]; donor 6, 0.2 mM",620 ± 322 Counts per minute
same,3H-thymidine incorporation,"[1]; donor 6, 0.4 mM",395 ± 22 Counts per minute
same,3H-thymidine incorporation,"[1]; donor 7, 0.006 mM",1133 ± 257 Counts per minute
same,3H-thymidine incorporation,"[1]; donor 7, 0.025 mM",1667 ± 254 Counts per minute
same,3H-thymidine incorporation,"[1]; donor 7, 0.050 mM",772 ± 137 Counts per minute
same,3H-thymidine incorporation,"[1]; donor 7, 0.2 mM",657 ± 137 Counts per minute
same,3H-thymidine incorporation,"[1]; donor 7, 0.4 mM",702 ± 189 Counts per minute
same,reversal of Cyclosporin A mediated suppression,[2],completely reversed
same,% Specific Cytotoxicity,[3]; compound (0.006),42%
same,% Specific Cytotoxicity,[3]; compound (0.025),36%
same,% Specific Cytotoxicity,[3]; compound (0.1),53%
same,cytotoxic T lymphocyte activity,[3]; cultured lymphoblasts from the SB cell (leukemic) line,increased
same,antitumor activity,[4],devoid of any useful antitumor activity
